In assay [1] the test system is sodium selenite-induced New Zealand rabbit cataract model. Briefly: Pharmacodynamic study on sodium selenite-induced New Zealand rabbit cataract model (slit lamp lens opacity grading). Conditions: 1.5% (w/w) eye drops; for Number of lenses with lens opacity grade III: Grade III: translucent lens nucleus; for Number of lenses with lens opacity grade IV: Grade IV: opacity of lens nucleus not involving cortex; for Effect compared with the core fragment compound c (Gc) group / Effect compared with the core fragment compound d (Gd) group / Effect compared with the model group (MG): chi-square test, p<0.05; for Therapeutic effect on the sodium selenite-induced cataract model: conclusion; for Number of lenses with lens opacity grade I: Grade I: vacuoles in periphery or anterior cortex of lens; for Number of lenses with lens opacity grade II: Grade II: slightly increased density of lens nucleus. The format is in vivo. As to the method: Neonatal New Zealand rabbits were P7 days old in ordinary grade, and 5 baby rabbits per litter were breastfed with one mother rabbit.
The young rabbits were randomly divided into 6 groups with 5 rabbits in each group. • 1) Normal control group (CG): Normal feeding. • 2) Disease model group (MG): At day P10, young rabbits were injected subcutaneously with sodium selenite solution (in normal saline) at 20 μmol/kg body weight. After day P15, normal saline eye drops were dripped into the left eye 3 times a day for 30 consecutive days. • 3) Compound 1 group (group 1, G1): At day P10, young rabbits were injected subcutaneously with sodium selenite solution (in normal saline) at 20 μmol/kg body weight. After day P15, 1.5% (w/w) compound 1 eye drops were dripped into the left eye 3 times a day for 30 consecutive days. • 4) Compound 2 group (group 2, G2): At day P10, young rabbits were injected subcutaneously with sodium selenite solution (in normal saline) at 20 μmol/kg body weight of. After day P15, 1.5% (w/w) compound 2 eye drops were dripped into the left eye 3 times a day for 30 consecutive days. • 5) Compound c group (group c, Gc): At day P10, young rabbits were injected subcutaneously with sodium selenite solution (in normal saline) at 20 μmol/kg body weight. After day P15, 1.5% (w/w) compound c eye drops were dripped into the left eye 3 times a day for 30 consecutive days. • 6) 3,3′-dithiodipropionic acid group (group d, Gd): At day P10, young rabbits were injected subcutaneously with sodium selenite solution (in normal saline) at 20 μmol/kg body weight. After day P15, 1.5% (w/w) 3,3′-dithiodipropionic acid eye drops were dripped into the left eye 3 times a day for 30 consecutive days.
Slit lamp observation: Slit lamp observation was performed on each group of sodium selenite-induced neonatal New Zealand rabbits before the administration, and 7 days, 14 days, and 30 days after the administration respectively, and the degree of lens opacity was graded to determine the therapeutic effect. Lens opacity grading standard [Hiraoka T, Clark J I. Inhibition of lens opacification during the early stages of cataract formation[J].

For the next assay, the system named is mice presbyopia model. Put plainly: Pharmacodynamic study on mice presbyopia model (lens thickness deformation under fixed pressure). In kind it is in vivo, Mice (C57BL/6J). Conditions: 1.5% (w/w) eye drops; for Lens thickness (deformation): 8 months old C57BL/6J mice, left eye, 3 times a day, 45 consecutive days, micrometer screw after fixed pressure, 5 lenses; for Therapeutic effect on elastic recovery of aged mice: conclusion, 45 days. From the text: Mice (8 months old, C57BL/6J), normal grade.
The mice were randomly divided into 4 groups with 5 mice in each group. • 1) Model group (MG): normal saline eye drops were dripped into the left eye for 45 consecutive days, 3 times a day. • 2) Compound 1 Group (group 1, G1): 1.5% (w/w) compound 1 eye drops were dripped into the left eye for 45 consecutive days, 3 times a day. • 3) Compound 2 Group (group 2, G2): 1.5% (w/w) compound 2 eye drops were dripped into the left eye for 45 consecutive days, 3 times a day. • 4) 3,3′-dithiodipropionic acid group (group d, Gd): 1.5% (w/w) 3,3′-dithiodipropionic acid eye drops were dripped into the left eye for 45 consecutive days, 3 times a day.
Measurement of lens thickness deformation: After 45 consecutive days of eye dripping, mice were euthanized with carbon dioxide and flushed with saline. Lens thickness was measured using a micrometer screw after applying a fixed pressure.

Setting [2] is: of 5 lenses, left eye, 3 times a day, 30 consecutive days.

Entries after “also recorded” stand apart in the source; their conditions may differ.

As for `O=C(O)CCSSCCC(=O)O` [3,3′-dithiodipropionic acid, reference compound], in assay [1] (setting [2]), the “Number of lenses with lens opacity grade III” value was 1 and the “Number of lenses with lens opacity grade IV” value came to 2. The “Number of lenses with lens opacity grade V” value in assay [1] (of 5 lenses, left eye, 3 times a day, 30 consecutive days, Grade V: opacity of lens nucleus and perinuclear cortex) amounted to 1. Also, in assay [1] (of 5 lenses, left eye, 3 times a day, 30 consecutive days, Grade VI: complete opacity of lens), the “Number of lenses with lens opacity grade VI” value stood at 1. Also, the “Lens thickness (deformation)” value in the assay on mice presbyopia model worked out at 1.55 ± 0.01.
Take `C[C@H](CCCC(C)(C)OC(=O)CCSSCCC(=O)O)[C@H]1CC[C@@]2(C)C3=C(CC[C@]12C)[C@@]1(C)CC[C@H](OC(=O)CCSSCCC(=O)O)C(C)(C)[C@@H]1CC3` [Compound 2]: in assay [1], the “Effect compared with the core fragment compound c (Gc) group” value is reported as “significantly superior”, the “Effect compared with the core fragment compound d (Gd) group” value is recorded as “significantly superior”, the “Effect compared with the model group (MG)” value is “significantly superior” and the “Therapeutic effect on the sodium selenite-induced cataract model” value was “significant therapeutic effects; also recorded: best therapeutic effect”. Also, in assay [1] (setting [2]), the “Number of lenses with lens opacity grade I” value is 3, the “Number of lenses with lens opacity grade II” value is 1 and the “Number of lenses with lens opacity grade III” value came out at 1. In addition, in the assay on mice presbyopia model, the “Lens thickness (deformation)” value is 1.51 ± 0.02 and the “Therapeutic effect on elastic recovery of aged mice” value (shortened to “Therapeutic effect … of aged mice”) is recorded as “significant therapeutic effects”.
As for `C[C@H](CCCC(C)(C)O)C1CC[C@@]2(C)C3=C(CC[C@]12C)[C@@]1(C)CC[C@H](OC(=O)CCSSCCC(=O)O)C(C)(C)[C@@H]1CC3` (stereo partly drawn) [Compound 1], in assay [1], the “Effect compared with the core fragment compound c (Gc) group” value was “significantly superior”, the “Effect compared with the core fragment compound d (Gd) group” value is recorded as “significantly superior”, the “Effect compared with the model group (MG)” value was “significantly superior” and the “Therapeutic effect on the sodium selenite-induced cataract model” value is “significant therapeutic effects”. In assay [1] (setting [2]), the “Number of lenses with lens opacity grade I” value is given as 1, the “Number of lenses with lens opacity grade II” value is listed as 2, the “Number of lenses with lens opacity grade III” value came to 1 and the “Number of lenses with lens opacity grade IV” value was 1. In the assay with mice presbyopia model, the “Lens thickness (deformation)” value turned out to be 1.42 ± 0.03 and the “Therapeutic effect … of aged mice” value is recorded as “significant therapeutic effects”. The “Therapeutic effect … of aged mice” value in the assay on mice presbyopia model (listed as G1) is reported as “most significant effect”.
With `C[C@H](CCCC(C)(C)O)[C@H]1CC[C@@]2(C)C3=C(CC[C@]12C)[C@@]1(C)CC[C@H](O)C(C)(C)[C@@H]1CC3` [Compound c, reference compound], in assay [1] (setting [2]), the “Number of lenses with lens opacity grade II” value was determined as 2 and the “Number of lenses with lens opacity grade III” value stood at 3.

Source of the values: patent US20260103485A1, “COMPOUND BASED ON OXIDATIVE STRESS AND ANTI-AMYLOID AGGREGATION MECHANISM, PREPARATION METHOD THEREFOR AND USE THEREOF” (SHENZHEN RAYTONE PHARMACEUTICAL CO., LTD, priority 2022, published 2026).
